Test results reported in patent publication US9060928B2, “Tacrolimus injection preparation” (FUZHOU HARVESTER PHARMACEUTICAL R&D CO., LTD., priority 2009, dated 2015).

Assays:
[1] = cited from earlier work
guinea pigs = experiment: Hypersensitivity test in animals; format: in vivo
Method: 18 healthy guinea pigs weighed 250-350 g were divided into 3 groups (a test group, a negative control group, and a positive control group) of 6 animals each at random. […] In 15 min after the injection, the hypersensitive responses of the injected guinea pigs were observed. A positive response was determined if two or more of piloerection, dyspnea, or 3 cough sounds, or one of twitch, collapse or death appeared.

Question: With `C=CC[C@@H]1/C=C(\C)C[C@H](C)C[C@H](OC)[C@H]2O[C@@](O)(C(=O)C(=O)N3CCCC[C@H]3C(=O)O[C@H](/C(C)=C/[C@@H]3CC[C@@H](O)[C@H](OC)C3)[C@H](C)[C@@H](O)CC1=O)[C@H](C)C[C@@H]2OC` (relative stereo) [tacrolimus, [3S—[3R*[E(1S*,3S*,4S*)],4S*,5R*,8S*,9E,12R*,14R*,15S*,16R*,18S*,19S*,26aR*]]-5,6,8,11,12,13,14,15,16,17,18,19,24,25,26a-hexa-decahydro-5,19-dihydroxy-3-[2-(4-hydroxy-3-methoxycyclohexyl)-1-methylethenyl]-14,16-dimethoxy-4,10,12,18-tetramethyl-8-(2-propenyl)-15,19-epoxy-3H-pyrido[2,1-c][1,4]oxazacyclotricosene-1,7,20,21(4H,23H)-tetrone, monohydrate] as the molecule, how does the “Solubility in organic solvents” value ([1]; organic solvents (such as methanol, ethanol, or acetone)) read?
Answer: The value was “freely soluble”.

Question: And the Solubility in water ([1]; water)?
Answer: Its Solubility in water is “practically insoluble”.

B1: 10% ovalbumin solution: 10% ovalbumin solution, positive control of the hypersensitivity test (protein, UniProt P01012 2-386, looked up)
Ovalbumin: GSIGAASMEFCFDVFKELKVHHANENIFYCPIAIMSALAMVYLGAKDSTRTQINKVVRFDKLPGFGDSIEAQCGTSVNVHSSLRDILNQITKPNDVYSFSLASRLYAEERYPILPEYLQCVKELYRGGLEPINFQTAADQARELINSWVESQTNGIIRNVLQPSSVDSQTAMVLVNAIVFKGLWEKAFKDEDTQAMPFRVTEQESKPVQMMYQIGLFRVASMASEKMKILELPFASGTMSMLVLLPDEVSGLEQLESIINFEKLTEWTSSNVMEERKIKVYLPRMKMEEKYNLTSVLMAMGITDVFSSSANLSGISSAESLKISQAVHAAHAEINEAGREVVGSAEAGVDAASVSEEFRADHPFLFCIKHIATNAVLFFGRCVSP
Question: For B1, which “Occurrence of hypersensitive response” value (guinea pigs; guinea pigs, n = 6, intraperitoneal sensitization, intravenous boost at days 14 and 21, animals responding/total) is on record?
Answer: Its value is 6/6.

Question: And the “Hypersensitive response of positive control (in words)” value (guinea pigs; in 1 min after two times of intravenous administration, 6 guinea pigs)?
Answer: Its value is “cough, respiratory depression, and twitch to death occur to all of the 6 guinea pigs”.
